Experimental data published in patent publication US20200330484A1, “STEROIDAL COMPOUNDS FOR TREATMENT OF MENTAL AND NEUROLOGICAL DISORDERS” (USTAV ORGANICKE CHEMIE A BIOCHEMIE AV CR, V.V.I., priority 2017, published 2020).
Where “and” joins values, the source holds several entries; their conditions need not be identical. Equal values may be shown once.

How the values were obtained:
hGluN1/hGluN2B(V558I) [1] = target: T1, hGluN1/hGluN2B(V558I) (Homo sapiens, UniProt Q05586+Q13224, V558I); details: read-out: Glutamate EC50; calculated from ratio of responses to two glutamate concentrations, h fixed at 1.4
hGluN1/hGluN2B(V618G) [2] = target: T2, hGluN1/hGluN2B(V618G) (Homo sapiens, UniProt Q05586+Q13224, V618G); details: read-out: Glutamate EC50; calculated from ratio of responses to two glutamate concentrations, h fixed at 1.4
hGluN1/hGluN2B(L825V) [3] = target: T3, hGluN1/hGluN2B(L825V) (Homo sapiens, UniProt Q05586+Q13224, L825V); details: read-out: Glutamate EC50; calculated from ratio of responses to two glutamate concentrations, h fixed at 1.4
hGluN1/hGluN2B(G820A) [4] = target: T4, hGluN1/hGluN2B(G820A) (Homo sapiens, UniProt Q05586+Q13224, G820A); details: read-out: Glutamate EC50; calculated from ratio of responses to two glutamate concentrations, h fixed at 1.4
[5] = target: T5, hGluN1/hGluN2B (WT) receptors (Homo sapiens, UniProt Q05586+Q13224); test: Whole-cell patch clamp, steroid potentiation of responses tonically activated by low concentration of glutamate; assay type: cell-based
T5 construct: expressed in transfected cells; host or cells: HEK293T
Method: (§1) Human embryonic kidney-293T (HEK293T) cells were used for transfection of human genes encoding for NMDA receptor subunits: hGluN1 (GenBank, accession number NP_015566) and hGluN2B (GenBank, accession number NP_000825). Equal amounts ([…]) of DNA encoding for GluN1 and GluN2B were mixed with 0.9 μl Matra-A Reagent (IBA, Gottingen, Germany) and added to confluent HEK293T cells. After trypsinization, the cells were resuspended in Opti-MEM I (ThermoFisher Scientific, Paisley, UK; Cat. #31985062) containing 1% fetal bovine serum supplemented with 15 mmol·l^−1 MgCl2, 1 mmol·l^−1 D,L-2-amino-5-phosphonopentanoic acid (D,L-AP5), and 1 μmol.l^−1 ketamine.
(§2) Mutations in the GluN2B subunit were made using the QuickChange Site-Directed Mutagenesis Kit (Agilent Technologies, Santa Clara, Calif., USA) according to the manufacturer's instructions. Mutated cDNA was transformed into ultra-competent XL1Gold E. coli cells, multiplied, positive clones were selected, and the isolated plasmide DNA was verified by sequencing (SEQme s.r.o., Dobris, Czechia, or GATC Biotech AG, Constance, Germany) All mutations were verified by DNA sequencing. Transfected HEK293T cells were identified by GFP epifluorescence. The amino acids are numbered on the basis of the full-length protein, including the signal peptide.
(§3) Experiments were performed 12-36 h after the end of transfection on cultured HEK293T cells transfected with vectors containing hGluN1/hGluN2B/GFP. Whole-cell voltage clamp current recordings were performed at room temperature (21-25° C.) at a holding potential of −60 mV using a patch-clamp amplifier (Axopatch 200B; Molecular Devices, Sunnyvale, Calif., USA) after a capacitance and series resistance (<10 MΩ) compensation of 80-90%. Data were collected (low-pass filtered at 2 kHz and sampled at 10 kHz) and analyzed using pClamp 10 (Molecular Devices). Patch pipettes (3-5 MΩ) were filled with an intracellular solution (ICS) containing (in mmol·l^−1): 120 gluconic acid, 15 CsCl, 10 BAPTA, 10 HEPES, 3 MgCl2, 1 CaCl2, and 2 ATP-Mg salt (pH-adjusted to 7.2 with CsOH) and extracellular solution (ECS) contained the following (in mmol·l^−1): 160 NaCl, 2.5 KCl, 10 HEPES, 10 glucose, 0.2 EDTA, and 0.7 CaCl2) (pH-adjusted to 7.3 with NaOH). […] The tested steroid solutions were made from freshly prepared 20 mmol·l^−1 20-oxopregn-5en-3β-yl sulfate (PE-S; pregnenolone sulfate), 5 mmol·l^−1 androst-5-en-3β-yl hemisuccinate (AND-hSuc), or 10 mmol·l^−1 20-oxo-5β-pregnan-3-yliden-4′-but-2-enoic acid stock in dimethyl sulfoxide (DMSO). The final dilution to ECS was made at 50° C. and followed by 1 min sonication (SONOREX DIGITEC DT 100/H, BADELIN electronic, Berlin, Germany) The same concentration of DMSO was added to all extracellular solutions. Control and test solution applications were made with a microprocessor-controlled multibarrel fast-perfusion system. The solution exchange rate was ˜15 ms. The following mutations of the gene encoding for hGluN2B subunit (GRIN2B) were tested: P553L; V558I; W607C; N615I; V618G; S628F; E657G; G820E; G820A; M824R; L825V. These mutations are located in the preM1, M2, M3, and M4 transmembrane domains of the receptor (FIG. 1).

[6] = target: T6, wild type hGluN1/hGluN2B receptor (Homo sapiens, UniProt Q05586+Q13224); test: Synaptic-like responses (approx. 5 ms application of 1 mmol/l glutamate), effect of steroids; assay type: cell-based; details: AE-hSuc 30 μmol · l^−1
T6 construct: The amino acids are numbered on the basis of the full-length protein, including the signal peptide; expressed in transfected cells; host or cells: HEK293T

hGluN1/hGluN2B(L825V) [7] = target: T3, hGluN1/hGluN2B(L825V); test: Whole-cell patch clamp, steroid potentiation of responses tonically activated by low concentration of glutamate; assay type: cell-based; parameters: expressed in transfected cells; host or cells: HEK293T
Method: as §1, §2, §3

hGluN1/hGluN2B(V618G) [8] = target: T2, hGluN1/hGluN2B(V618G); test: as above; assay type: cell-based; parameters: expressed in transfected cells; host or cells: HEK293T; details: AE-hSuc 30 μmol · l^−1; HEK293T; mean ± SEM
Method: as §1, §2, §3

[9] = target: T7, mutated hGluN1/hGluN2B(L825V) receptor (Homo sapiens, UniProt Q05586+Q13224, L825V); test: Synaptic-like responses (approx. 5 ms application of 1 mmol/l glutamate), effect of steroids; assay type: cell-based; details: AE-hSuc 30 μmol · l^−1
T7 construct: The amino acids are numbered on the basis of the full-length protein, including the signal peptide; expressed in transfected cells; host or cells: HEK293T

hGluN1/hGluN2B(V558I) [10] = target: T1, hGluN1/hGluN2B(V558I); test: Whole-cell patch clamp, steroid potentiation of responses tonically activated by low concentration of glutamate; assay type: cell-based; parameters: The amino acids are numbered on the basis of the full-length protein, including the signal peptide; expressed in transfected cells; host or cells: HEK293T; details: AE-hSuc 30 μmol · l^−1; HEK293T; mean ± SEM
Method: as §1, §2, §3

hGluN1/hGluN2B(G820A) [11] = target: T4, hGluN1/hGluN2B(G820A); test: as above; assay type: cell-based; parameters: The amino acids are numbered on the basis of the full-length protein, including the signal peptide; expressed in transfected cells; host or cells: HEK293T; details: AE-hSuc 30 μmol · l^−1; HEK293T; mean ± SEM
Method: as §1, §2, §3

[12] = AE-hSuc 30 μmol · l^−1, HEK293T, mean ± SEM
[13] = synaptic-like response, mean ± SEM

Row | SMILES | potency estimated from few doses (hGluN1/hGluN2B(V558I) [1]) [nM] | potency estimated from few doses (hGluN1/hGluN2B(V618G) [2]) [nM] | potency estimated from few doses (hGluN1/hGluN2B(L825V) [3]) [nM] | potency estimated from few doses (hGluN1/hGluN2B(G820A) [4]) [nM] | Potentiating effect (%) [5, 12] | Potentiation of typical WT receptor response (FIG. 3B) ([5]; AE-hSuc 30 μmol/l, 1 μmol/l glutamate, typical response) [%] | τ (MS) ([6]; deactivation, control 370 ± 35) | Charge transfer ([6]; relative to control) | Potentiation (%) [6, 13] | Deceleration ([6]; τsteroid/τcontrol) | Potentiating effect (%) (hGluN1/hGluN2B(L825V) [7]; [12]) | Potentiation of GluN2B(L825V) receptors compared with wild type receptors (hGluN1/hGluN2B(L825V) [7]; PE-S 100 μmol/l, AE-hSuc 30 μmol/l) | Potentiating effect (%) (hGluN1/hGluN2B(V618G) [8]) | τ (ms) ([9]; deactivation, control 335 ± 29) | Charge transfer ([9]; relative to control) | Potentiation (%) [9, 13] | Deceleration ([9]; τsteroid/τcontrol) | Potentiating effect (%) (hGluN1/hGluN2B(V558I) [10]) | Potentiating effect (%) (hGluN1/hGluN2B(G820A) [11])
1 | N[C@@H](CCC(=O)O)C(=O)O [Glutamate, glutamate] | 1600 ± 300 | 1800 ± 200 | 1600 ± 200 | 1500 ± 300 |  |  |  |  |  |  |  |  |  |  |  |  |  |  | 
2 | C[C@@]12CCC[C@H]1[C@@H]1CC=C3C[C@@H](OC(=O)CCC(=O)O)CC[C@]3(C)[C@H]1CC2 [AE-hSuc, androst-5-en-3β-yl hemisuccinate] |  |  |  |  | 628 ± 71 (19) % | 612 | 5961 ± 542 (5) MS | 161.36 ± 20.28 (5) | 924.5 ± 172.7 (5) % | 16.36 ± 1.44 (5) | 1647% and 1647 ± 425 (7)^††; % | more pronounced effect on mutant receptors | 509 ± 61 (5)^††; % | 2467 ± 168 (5) ms | 179.65 ± 9.11 (5) | 2323.1 ± 120.7 (5) % | 7.19 ± 0.59 (5) | 685 ± 67 (6)^††; % | 411 ± 138 (3)^††; %
